Measured values: patent US12404295B2, “(Hetero)aryl-methyl-thio-beta-D-galactopyranoside derivatives” (Idorsia Pharmaceuticals Ltd, priority 2019, dated 2025)
pIC50: −log10 of the molar value. Read-outs that look alike come from different tables or passages of the source.

Tests used:
human Gal-3 (hGal-3) = human Gal-3 (hGal-3) (Homo sapiens (Human), UniProt P17931); experiment: competitive binding assay: biotinylated hGal-3 binding to microplate-adsorbed asialofetuin (ASF)
Procedure, shortened: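 Serial DMSO dilutions of each compound; binding incubation of 3 hours at 4 °C with cold-buffer washes; detection using 80 ng/mL streptavidin-peroxidase for 1 hour, then ABTS. Multiple determinations were averaged to give the IC50.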

human Gal-1 (hGal-1) = human Gal-1 (hGal-1) (Homo sapiens (Human), UniProt P09382); experiment: competitive binding assay: biotinylated hGal-1 binding to microplate-adsorbed asialofetuin (ASF); details: Table 15; read-out: IC50 (Galectin-1 inhibition)
human Gal-1 (hGal-1), sequence (P09382 whole entry): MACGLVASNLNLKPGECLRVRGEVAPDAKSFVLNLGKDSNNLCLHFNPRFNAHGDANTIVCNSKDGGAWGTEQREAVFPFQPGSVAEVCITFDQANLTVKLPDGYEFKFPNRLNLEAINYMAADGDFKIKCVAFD
Procedure, shortened: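 Spectrophotometric competition readout: after compound and biotinylated hGal-1 (300-1000 ng/mL) sit 3 h at 4° C on adsorbed asialofetuin, streptavidin-peroxidase (1 h, 4° C) and ABTS reveal residual binding. Reported IC50 values are means of repeat runs.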

[1] = Table 5, read-out: IC50 (Gal-3 inhibition)
[2] = Table 10, 2-OMe-Gal inhibitors, read-out: IC50 (Gal-3 inhibition)
[3] = Gal-3 inhibition, binding of biotinylated hGal-3 to ASF, mean values, read-out: IC50

human Gal-3 (hGal-3), sequence (P17931 whole entry): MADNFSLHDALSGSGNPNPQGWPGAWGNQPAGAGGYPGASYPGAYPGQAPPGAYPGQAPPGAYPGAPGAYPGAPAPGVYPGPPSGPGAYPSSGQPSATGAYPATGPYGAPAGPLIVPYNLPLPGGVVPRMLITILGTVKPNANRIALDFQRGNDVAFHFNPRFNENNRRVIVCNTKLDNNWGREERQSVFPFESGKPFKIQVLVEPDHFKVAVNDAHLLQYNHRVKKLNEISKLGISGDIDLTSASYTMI

## Cc1ccccc1[C@H](S[C@@H]1O[C@H](CO)[C@H](O)[C@H](n2cc(-c3cc(F)c(F)c(F)c3)nn2)[C@H]1O)C1(O)CCOCC1 [Example 2.41.102S.]
Human Gal-3 (hGal-3); [1]
  pIC50: 5.13
Human Gal-1 (hGal-1)
  pIC50: 4.18

## CO[C@@H]1[C@@H](n2cc(-c3cc(F)c(F)c(F)c3)nn2)[C@@H](O)[C@@H](CO)O[C@H]1S[C@H](c1nocc1C)C1(O)CCC(F)(F)CC1 [Example 2.44.120R.I., (2R,3R,4S,5R,6S)-6-(((R)-(4,4-Difluoro-1-hydroxycyclohexyl)(4-methylisoxazol-3-yl)methyl)thio)-2-(hydroxymethyl)-5-methoxy-4-(4-(3,4,5-trifluorophenyl)-1H-1,2,3-triazol-1-yl)tetrahydro-2H-pyran-3-ol]
Human Gal-3 (hGal-3); [2]
  pIC50: 6.68
Human Gal-1 (hGal-1)
  pIC50: 6.21

## CO[C@@H]1[C@@H](n2cc(-c3cc(F)c(F)c(F)c3)nn2)[C@@H](O)[C@@H](CO)O[C@H]1S[C@H](c1nocc1C)C1(O)CCCCC1 [Example 2.39.120R.I., (2R,3R,4S,5R,6S)-6-(((R)-(1-Hydroxycyclohexyl)(4-methylisoxazol-3-yl)methyl)thio)-2-(hydroxymethyl)-5-methoxy-4-(4-(3,4,5-trifluorophenyl)-1H-1,2,3-triazol-1-yl)tetrahydro-2H-pyran-3-ol]
Human Gal-3 (hGal-3); [2]
  pIC50: 6.60
Human Gal-1 (hGal-1)
  pIC50: 6.25

## Cc1ccnnc1[C@@H](S[C@@H]1O[C@H](CO)[C@H](O)[C@H](n2cc(-c3cc(F)c(F)c(F)c3)nn2)[C@H]1O)C1(O)CCC(F)(F)CC1 [Example 2.44.135R., (2S,3R,4S,5R,6R)-2-(((R)-(4,4-Difluoro-1-hydroxycyclohexyl)(4-methylpyridazin-3-yl)methyl)thio)-6-(hydroxymethyl)-4-(4-(3,4,5-trifluorophenyl)-1H-1,2,3-triazol-1-yl)tetrahydro-2H-pyran-3,5-diol]
Human Gal-3 (hGal-3); [3]
  pIC50: 7.40
Human Gal-1 (hGal-1)
  pIC50: 6.66

## (2S,3R,4S,5R,6R)-2-(((S)-(4-Hydroxy-2,2,6,6-tetramethyltetrahydro-2H-pyran-4-yl)(2-(trifluoromethyl)phenyl)methyl)thio)-6-(hydroxymethyl)-4-(4-(3,4,5-trifluorophenyl)-1H-1,2,3-triazol-1-yl)tetrahydro-2H-pyran-3,5-diol [Example 2.42.102S.]
Human Gal-3 (hGal-3); [1]
  pIC50: 5.11
Human Gal-1 (hGal-1)
  pIC50: < 4.00

## CCCCCc1ccccc1C(S[C@@H]1O[C@H](CO)[C@H](O)[C@H](n2cc(-c3cc(F)c(F)c(F)c3)nn2)[C@H]1O)C(C)(C)O (stereo partly drawn) [Example 2.31.109., (2S,3R,4S,5R,6R)-2-((2-Hydroxy-2-methyl-1-(2-pentylphenyl)propyl)thio)-6-(hydroxymethyl)-4-(4-(3,4,5-trifluorophenyl)-1H-1,2,3-triazol-1-yl)tetrahydro-2H-pyran-3,5-diol]
Human Gal-3 (hGal-3); [3]
  pIC50: 6.27
Human Gal-1 (hGal-1)
  pIC50: 5.49

## CO[C@@H]1[C@@H](n2cc(-c3cc(F)c(F)c(F)c3)nn2)[C@@H](O)[C@@H](CO)O[C@H]1S[C@H](c1noc(C2CC2)c1CC(C)C)C1(O)CCC(F)(F)CC1 [Example 2.44.131R.I., (2R,3R,4S,5R,6S)-6-(((R)-(5-Cyclopropyl-4-isobutylisoxazol-3-yl)(4,4-difluoro-1-hydroxycyclohexyl)methyl)thio)-2-(hydroxymethyl)-5-methoxy-4-(4-(3,4,5-trifluorophenyl)-1H-1,2,3-triazol-1-yl)tetrahydro-2H-pyran-3-ol]
Human Gal-3 (hGal-3); [2]
  pIC50: 6.89
Human Gal-1 (hGal-1)
  pIC50: 7.00

## COC(=O)N1CCC(O)([C@H](S[C@@H]2O[C@H](CO)[C@H](O)[C@H](n3cc(-c4cc(F)c(F)c(F)c4)nn3)[C@H]2O)c2ccccc2C(F)(F)F)CC1 [Example 2.50.112R., Methyl 4-((R)-(((2S,3R,4S,5R,6R)-3,5-dihydroxy-6-(hydroxymethyl)-4-(4-(3,4,5-trifluorophenyl)-1H-1,2,3-triazol-1-yl)tetrahydro-2H-pyran-2-yl)thio)(2-(trifluoromethyl)phenyl)methyl)-4-hydroxypiperidine-1-carboxylate]
Human Gal-3 (hGal-3); [3]
  pIC50: 7.10
Human Gal-1 (hGal-1)
  pIC50: 6.43
